Test results: patent publication US6548540B2, “Method of treating cancer using dithiocarbamate derivatives” (Charlotte-Mecklenburg Hospital Authority, priority 1998, dated 2003)

Tests used:
M1619 melanoma cells [1] = assay: MTT proliferation assay, M1619 melanoma; type: cell-based, human
Procedure: Human malignant cell lines were obtained from American Type Tissue Culture Collection (Rockville, Md.). Melanoma cells lines CRL 1585 and 1619 were cultured in RPMI 1640 (GIBCO-BRL, Life Technologies, Grand Island, N.Y.) with 10% FBS and passed with nonenzymatic Cell Dissociation Solution® (Sigma). The prostate adenocarcinoma cell line CRL 1435 (PC-3) was also cultured in RPMI 1640 with 10% FBS but passed with 0.05% trypsin and 0.53 mM EDTA. The squamous lung carcinoma NCI-H520 and the adenosquamous lung carcinoma NCI-H596 cell lines were grown in RPMI 1640 supplemented with 10% FBS, 10 mM HEPES and 1.0 mM sodium pyruvate and passed with trypsin/EDTA. The small cell lung carcinoma NCI-H82 was cultured as a suspension in RPMI 1640 with 10% FBS. All of the above were grown in a 37° C. humidified environment containing 5% CO2/air. The breast carcinoma cell line MDA-MB-453 was grown in a 37° C. humidified environment with free gas exchange with atmospheric air using Leibovitz's L-15 medium with 2 mM L-glutamine and 10% FBS and was passed with trypsin/EDTA.
The effect of disulfiram (0.15 to 5.0 μM), diethyldithiocarbamate (DDC, 1.0 μM) or PDTC (0.625 to 5.0 μM) on proliferation of malignant cell lines was studied in cultures stimulated with 10% FBS. Cell numbers were quantitated 24-72 hours later. In some experiments disulfiram or PDTC were added immediately after cells were plated. In other experiments, cells were plated and allowed to grow for 24-72 hours before fresh media with disulfiram or PDTC was added, and cell numbers were assayed 24-72 hours later.
Finally, a number of dithiocarbamate effects on cells have been attributed to increasing the intracellular levels of copper ions. To further probe the role of copper in mediating cytotoxicity from disulfiram, cells were cultured with or without addition of the impermeate Cu^2+ chelator bathocuprioinedisulfonic acid (BCPS, 100 μM) added to medium to sequester Cu^2+ in the extracellular compartment. Cells were also treated 12 hours with various concentration of disulfiram (0.625 to 5.0 μM) and intracellular copper levels were measured as outlined below.
Proliferation of cultured cells was quantitated using a previously reported calorimetric method based upon metabolic reduction of the soluble yellow tetrazolium dye 3-[4,5-dimethylthiazol]-2yl-2,5-diphenyl tetrazolium bromide (MTT) to its insoluble purple formazan by the action of mitochondrial succinyl dehydrogenase (See, e.g., S. J. Hirst, et al., “Quantifying proliferation of cultured human and rabbit airway smooth muscle in response to serum and platelet derived growth factor,” Am. J. Respir. Cell Mol. Biol. 7:574-581 (1992); R. Dashtaki, et al. R., supra; S. S. Brar, et al., “Requirement for reactive oxygen species in serum-induced and platelet-derived growth factor-induced growth of airway smooth muscle,” J. Biol. Chem. 274:20017-20026 (1999)). This assay empirically distinguishes between dead and living cells. For proliferation studies, cells were seeded into 24-well uncoated plastic plates (Costar) at 50,000 cells per well and cultured with respective media and mitogens.

M1619 melanoma cells [2] = assay: DNA cell cycle by flow cytometry; type: cell-based, human; conditions: 24 hours
Procedure: To study the effect of disulfiram on the DNA cell cycle, cells were grown to confluence in 25 cm^2 plastic flasks and treated for with 10% FBS plus DMSO vehicle, FBS and DMSO vehicle plus 250 μg/ml ceruloplasmin as a source of copper, FBS plus 5 μM disulfiram or FBS plus 5 μM disulfiram and 250 μg/ml ceruloplasmin. After 24 hours cells were trypsinized, washed twice in cold DPBS with 1 mM EDTA and 1% BSA, fixed 30 minute in ice-cold 70% ethanol, and stained by incubation for 30 minutes at 37° C. in a 10 μg/ml solution of propidium iodide in DPBS and 1 mg/ml RNase A. DNA cell cycle measurements were made using a FACStar^PLUS Flow Cytometer (Becton-Dickenson, San Jose, Calif.).
The antiproliferative activity of dithiocarbamate disulfides depends on complexation with copper. PDTC induces apoptosis in normal thymocytes that is mediated by complexation of copper from fetal bovine serum in the medium and subsequent facilitation of copper transport into cells. […] Unsynchronized M1619 melanoma cells were grown in the presence of DMSO vehicle (A), 5 μM disulfiram (B), or 5 μM disulfiram plus 250 μg/ml ceruloplasmin (Cerulo) as a source of copper (C). Twenty-four hours later, cells were harvested and flow cytometric analysis was performed. The proportion of nuclei in each phase of the cell cycle (brackets) was determined with MODFIT DNA analysis software. Disulfiram increases the portion of cells in S phase. The combination of disulfiram and ceruloplasmin further increases the number of cells in S phase, prevents progression into the G2-M cell cycle and induces apoptosis.

[3] = 5 μM disulfiram plus 250 μg/ml ceruloplasmin

CCN(CC)C(=S)SSC(=S)N(CC)CC [Disulfiram, tetraethylthiuram disulfide]
IC50 (M1619 melanoma cells [1]; Homo sapiens, M1619, grown 24 hours, additional 24 hours, no added CuSO4, read-out: 50% inhibitory (IC50) concentration): 625 nM | inhibition at 0.625 µM (M1619 melanoma cells [1]; Homo sapiens, disulfiram 0.625 μM, treatment after 24 hours of growth, read-out: Mean Percent Inhibition of Growth): 59 ± 4% | inhibition at 1.25 µM (M1619 melanoma cells [1]; Homo sapiens, disulfiram 1.25 μM, treatment after 24 hours of growth, read-out: Mean Percent Inhibition of Growth): 35 ± 4% | inhibition at 2.5 µM (M1619 melanoma cells [1]; Homo sapiens, disulfiram 2.5 μM, treatment after 24 hours of growth, read-out: Mean Percent Inhibition of Growth): 39 ± 3% | inhibition at 5 µM (M1619 melanoma cells [1]; Homo sapiens, disulfiram 5.0 μM, treatment after 24 hours of growth, read-out: Mean Percent Inhibition of Growth): 37 ± 4% | 100% inhibitory (IC100) concentration (M1619 melanoma cells [1]; M1619, with 0.2 μM CuSO4 added to medium, grown 24 hours, additional 24 hours): 0.625 µM | growth in vitro of M1619 melanoma (M1619 melanoma cells [1]; added at plating, 24 hours): potent inhibitor of growth | A540 of MTT Formazan (M1619 melanoma cells [1]; disulfiram 0.6 μM + carmustine 1 μM, 24 hours): 0.042 ± 0.003^C | A540 of MTT Formazan (M1619 melanoma cells [1]; disulfiram 0.6 μM + carmustine 10 μM, 24 hours): 0.025 ± 0.002^C | A540 of MTT Formazan (M1619 melanoma cells [1]; disulfiram 0.6 μM + carmustine 100 μM, 24 hours): 0.030 ± 0.023 | A540 of MTT Formazan (M1619 melanoma cells [1]; disulfiram 0.6 μM + carmustine 1,000 μM, 24 hours): 0.004 ± 0.000 | A540 of MTT Formazan (M1619 melanoma cells [1]; disulfiram 2.5 μM + cisplatin 1 ng/ml, added after 48 hours, additional 24 hours): 1.369 ± 0.033^B | A540 of MTT Formazan (M1619 melanoma cells [1]; disulfiram 2.5 μM + cisplatin 10 ng/ml, added after 48 hours, additional 24 hours): 1.221 ± 0.028 | A540 of MTT Formazan (M1619 melanoma cells [1]; disulfiram 2.5 μM + cisplatin 100 ng/ml, added after 48 hours, additional 24 hours): 1.183 ± 0.038^A | A540 of MTT Formazan (M1619 melanoma cells [1]; disulfiram 2.5 μM + cisplatin 1,000 ng/ml, added after 48 hours, additional 24 hours): 0.921 ± 0.027^A | apoptotic cells (M1619 melanoma cells [2]; [3]): 6% | cells in G2-M (M1619 melanoma cells [2]; [3]): none | cells in S phase (M1619 melanoma cells [2]; [3]): Over two-thirds | cell cycle distribution (M1619 melanoma cells [2]; 5 μM disulfiram): increases the portion in S phase
